Test results reported in ChEMBL document CHEMBL4257528, “Molecular insights into the interaction of Hsp90 with allosteric inhibitors targeting the C-terminal domain” (Medchemcomm, 2018).
Activity calls are given as the source filed them. The calls are words filed in the database; no cut-off is given here.

What was measured:
[1] = Solubility of the compound in buffer solution; assay type: physicochemical
[2] = target: Heat shock protein HSP 90-alpha (Homo sapiens) (UniProt P07900); experiment: Binding affinity to 1H/13C-Ile HSP90alpha CTD (unknown origin) at 0.9 mM by Methyl-TROSY […] spectrum analysis
[3] = target: Heat shock protein HSP 90-alpha (Homo sapiens) (UniProt P07900); experiment: Binding affinity to N-terminal His6-tagged HSP90alpha CTD (unknown origin) expressed in Escherichia coli BL21(DE3) at compound to protein ratio of 164 by STD-NMR method
[4] = target: Heat shock protein HSP 90-alpha (Homo sapiens) (UniProt P07900); experiment: Binding affinity to 1H/13C-Ile HSP90alpha CTD (unknown origin) at 1.4 mM by Methyl-TROSY […] spectrum analysis
[5] = target: Heat shock protein HSP 90-alpha (Homo sapiens) (UniProt P07900); experiment: Binding affinity to 1H/13C-Ile HSP90alpha CTD (unknown origin) at 2.5 mM by Methyl-TROSY […] spectrum analysis

Row | solubility [1] | Activity [2] | Activity [3] | Activity [4] | SMILES | Activity [5]
1 | Soluble | Active | Active |  | CO[C@@H]1[C@@H](O)[C@@H](O)[C@H](Oc2ccc3cc(NC(C)=O)c(=O)oc3c2C)OC1(C)C | 
2 | Soluble |  | Active | Active | CO[C@@H]1[C@@H](O)[C@@H](O)[C@H](Oc2ccc(CCNC(C)=O)c(-c3cccc(F)c3)c2)OC1(C)C [CEMDOMESPIB] | 
3 |  |  |  |  | Nc1ncnc2c1ncn2[C@@H]1O[C@H](COP(=O)(O)OP(=O)(O)NP(=O)(O)O)[C@@H](O)[C@H]1O | Active
